Tests used:
[1] = tested on: washed human platelet suspension; test: Inhibition of collagen-induced platelet aggregation (aggregometer); assay type: cell-based; details: washed human platelets, 2 min preincubation, collagen 4 μg/ml, read-out 6 min after induction
Protocol: Platelet shape change in washed platelets was monitored using an aggregometer and the decrease in light transmittance following addition of an agonist (Huzoor et al., 1993). For the purpose of this analysis, collagen was used as the agonist. Briefly, a washed human platelet suspension was incubated at 37° C. in a Lumi-Aggregometer (Chrono-Log Corporation) with stirring at 900 rpm, followed by the addition of dimethylsulfoxide (DMSO) as a control vehicle, or DMSO containing (S)G04 or (R)G04 (FIG. 1A). (S)G04 and (R)G04 were tested at concentrations of 1, 5, 10, 30 and 50 μM.
After incubating the samples with the respective compound for 2 minutes, platelet aggregation was induced by adding collagen ([…]) and the relative aggregation value was read out at 6 min after the induction. A dose response for each compound was derived.
In these experiments, a collagen concentration of 4 μg/ml was used. The IC50 values calculated for (R)G04 and (S)G04 are 40 μM and 4 μM, respectively.

[2] = Pharmacokinetic study of (S)G04 in mice, serum UPLC-MS/MS; assay type: in vivo; details: IV injection of 10 and 50 μM in PAS buffer
Protocol: Standard (S)G04 was diluted from DMSO stock (50 mM) with PAS buffer into 10 and 50 μM, administered to mice via IV injection, and serum samples were collected at time points 1, 3, 10, 30 min, and stored at −80° C. before analysis. PK samples from mice serum (retro orbital bleed) were usually 20-100 μL.
A calibration curve in the range of 0-1 μM, i.e. 0, 0.01, 0.05, 0.1, 0.5, 1 μM, was prepared by spiking standard solution ([…] (S)G04 in PAS buffer) into blank mouse serum and then conducting serial dilution accordingly.
QC samples were prepared in the same way with final concentration of 0.05 and 0.5 μM.
Samples were prepared by carrying out the following steps. Add 20 μL of mouse serum (PK samples, calibrators and QCs), and 20 μL of internal standard in methanol, vortex for 30 secs. Add 100 μL of ice cold MeOH then vortex for 1 min. Let sit for 5 minutes before submitting to centrifuge for 10 minutes at 21,100×g (RCF) at 4° C. Take 100 μL of the supernatant and transfer to autosampler vial (max recovery, Waters). Put a cap on the vial, and load vials onto UPLC-MS autosampler for analysis. Because organic solvent evaporates relatively quickly at room temperature, samples in organic solvents should not be left at room temperature longer than 6 hr before injection. Set up the UPLC-MS/MS system: cleaning cone, in accordance with the manufacturer's Operation SOP/documents. […]

[3] = tested on: cold-stored human platelets; test: Human platelet recovery after xenotransfusion of cold-stored human platelets into NSG mice; assay type: in vivo, human platelets in NOD/SCID/gc-/- (NSG) mice; details: 10 μM in PAS-3M, cold storage 1-6° C. for 7 or 14 days, followed 24 hours post-transfusion
Protocol: To assess (S)G04 and (R)G04 prevention of platelet activation in vivo, xenotransfusion was performed of long-term (day 7, FIG. 3 and day 14, FIG. 4) stored solutions by taking an aliquot (equivalent to 1×10^6 platelets) of CFSE-labeled cold-stored human platelets (Acrodose, pooled platelets from four ABO identical donors) that were transfused to conditioned NOD/SCID/gc−/− (NSG) mice and followed for 24 hours post-transfusion.
Four storage conditions were tested. In all storage conditions, the vehicle was the platelet additive solution PAS-3M (Grifols, Barcelona, Spain). The storage conditions varied as follows (1) room temperature storage in vehicle only (RT-Vehicle), (2) cold storage (1-6° C., average ˜2° C.) in vehicle only (Cold-Vehicle), (3) cold storage in vehicle with 10 μM (S)G04 (Cold-G04-S), (4) cold storage in vehicle with 75 μM (R)G04 (Cold-G04-R).
Data is presented as an average of a triplicate analysis. […] Data is presented as an average of a triplicate analysis.

[4] = tested on: congenic murine platelets; test: In vivo clot formation: tail bleeding time of aspirinated mice after platelet transfusion; details: 10 μM, murine platelets stored cold (1-6° C.) 4 hours, 24 hours post-administration of platelets
Protocol: Next, the influence of G04 ((S)G04 and (R)G04) on in vivo clot formation was examined. Congenic murine platelets were stored in cold (1-6° C.) for 4 hours and then administered to mice 24 hours after administration of aspirin. Bleeding time was measured for aspirinated mice receiving no platelets, vehicle-only platelets stored at room temperature, vehicle-only cold-stored platelets, vehicle+(R)G04 (75 μM) cold-stored platelets, and vehicle+(S)G04 (10 μM) cold-stored platelets. The results were compared to control non-aspirinated mice (Basal).

With `N[C@@H](Cc1c[nH]c2ccccc12)C(=O)N/N=C/c1ccc2nccnc2c1` [(S)G04] the IC50 [1] was 4 µM, the “reduction of the injection concentration in 1 minute” value [2] was > 100 × and the “survival of cold-stored platelets (recovery and AUC) after xenotransfusion” value [3] was “completely prevented the decreased survival”. The “bleeding time of aspirinated mice” value [4] was “completely corrected the bleeding time”.

Reference: patent US20230068990A1, “PLATELET STORAGE METHODS AND COMPOSITIONS” (Platefuse, Inc., priority 2020, published 2023)
